Data from patent US7427686B2, “(3R, 4R)-trans-3, 4-diarylchroman derivatives and a method for the prevention and/or treatment of estrogen dependent diseases” (Counsel of Scientific and Industrial Research, priority 2003, dated 2008).
Read-outs that look alike come from different tables or passages of the source.

Key:
[1] = tested on: PTH-induced resorption of 45Ca from chick fetal bones in culture; assay: Antiosteoporosis (antiresorptive) activity in vitro, chick fetal bone assay; format: cell-based; conditions: for T/C ratio: 100 μM, inhibition in PTH-induced resorption of 45Ca
Method: Test solutions of the compounds of the present invention are prepared in appropriate solvents in concentration range of 5 millimolar to 400 millimolar, most preferably in concentrations of 20 millimolar. 5 μl of each concentration are used for evaluation of antiresorptive activity in vitro. In control experiments, 5 μl of appropriate solvent is used in lieu of test compound. Femur bones are isolated from chick embryos on day 11 post-ovulation. The adhering soft connective tissue is completely removed. Each femur bone is then placed in a drop of phosphate buffered saline (PBS) and is transferred to BGJb culture medium containing ^45CaCl2 and incubated for 2 h. Labeled femur bones are washed 2-3 times with PBS and transferred to BGJb medium containing parathyroid hormone and cultured for 96 h in the presence or absence of the compound of invention or the vehicle in BGJb medium. Contralateral femur of each fetus serves as corresponding control. Culture medium with the respective treatment in each well is changed after 48 h. On termination of the culture at 96 h, bones are transferred to 0.1 N HCl for 24 h. Radioactivity due to ^45Ca in the spent medium collected at 48 and 96 h of culture and HCl extract at 96 h of culture is quantified by Liquid Scintillation Spectrophotometer in 10 ml of the scintillation fluid. Bone resorbing activity is expressed as percentage of ^45Ca released into the culture medium and the effect of the compound of invention as percent of the corresponding contra-lateral control or T/C ratio as shown below: [formula] Appropriate solvents are selected from solvents like water, normal (physiological) saline, phosphate buffered saline, phosphate buffer, DMSO alone or in a suitable combinations thereof.

[2] = tested on: immature ovariectomized rats; assay: Estrogen agonistic activity (uterine weight and uterine morphometry); format: in vivo, rat; conditions: for Percent increase in uterine weight (percent of OVX + vehicle treatment group): 3 days
Method: Twenty-one-day-old immature female rats are bilaterally ovariectomized under light ether anaesthesia and, after post-operative rest for 7 days, are randomized into different treatment groups. Each rat receives the compound of the invention once daily for 3 consecutive days on days 28-30 of age. A separate group of animals receiving only the vehicle for similar duration serves as control. At autopsy 24 h after the last treatment on day 31 of age, vaginal smear of each rat is taken and uterus is carefully excised, gently blotted, weighed and fixed for histology and histomorphometry using image analysis. Premature opening of vagina, cornification of vaginal epithelium, increase in uterine fresh weight, total uterine and endometrial area and uterine luminal epithelial cell height are taken as parameters for evaluation of estrogen agonistic activity in comparison to rats of vehicle control group.
For image analysis in estrogen agonistic activity evaluation studies, paraffin sections (6 μm thick) of the uterus stained with haematoxylin and eosin were analysed microscopically. To determine changes in uterine tissue components, areas of whole uterus and endometrium and the thickness of uterine epithelium were measured using a computer-image analysis system (BioVis, Expert Vision, India). Briefly, microscopic images of uterus acquired through a CCD camera were loaded in to the image analysis program and spatially calibrated against a stage micrometer image taken at the same magnification. Using thresholding and line tools, the regions for measurements were selected and the area (mm^2) of whole uterine transection excluding the luminal space, the area (mm^2) of the endometrium only, and the thickness (μm) of luminal epithelial lining were measured. Luminal epithelial thickness data was the Average of measurements made at 6 randomly selected sites are taken as parameters for evaluation.

[3] = tested on: immature ovariectomized rats; assay: Estrogen antagonistic activity (EE induced uterine weight gain); format: in vivo, rat; conditions: 3 days
Method: Twenty-one-day-old immature female rats are bilaterally ovariectomized under light ether anaesthesia and after post-operative rest for 7 days, are randomized into different treatment groups. Each rat receives the compounds of the invention and 0.02 mg/kg dose of 17-alfa-ethynylestradiol in 10% ethanol-distilled water once daily for 3 consecutive days on days 28-30 of age. A separate group of animals-receiving only 17-alfa-ethynylestradiol (0.02 mg/kg) in 10% ethanol-distilled water for similar duration are used for comparison. At autopsy on day 31 of age, vaginal smear of each rat is taken and uterus is carefully excised, gently blotted, weighed and fixed for histology and histomorphometry using image analysis. Inhibition in 17-alfa-ethynylestradiol-induced premature opening of vagina, cornification of vaginal epithelium, increase in uterine fresh weight, total uterine and endometrial area and uterine luminal epithelial cell height are taken as parameters for evaluation of estrogen antagonistic activity.

adult female rats = assay: Post-coital antifertility activity; format: in vivo, rat; conditions: for % Efficacy: oral
Method: Adult female rats are caged overnight with coeval males of proven fertility and their vaginal smears are checked on the following morning. The day of presence of spermatozoa in the vaginal smear is taken as day 1 of pregnancy. […] Animals of all the groups are autopsied on day 10 post-coitum and number and status of corpora lutea and implantation sites in each rat are recorded. The compounds of the present invention are considered active if there is complete absence of implantations in the uterus of all rats, in comparison to presence of normal implantations in the uterus of rats of vehicle control group.

estrogen receptors = target: T1, estrogen receptors (Rattus norvegicus, UniProt P06211); assay: Relative binding affinity (RBA) to estrogen receptors, 3H-estradiol competition assay; conditions: rat uterine cytosol, 3H-E2, 18 hrs at 4° C.; relative to 17-beta-estradiol = 100
T1 construct: Aliquot of uterine cytosol (200 μl; 2 uteri per ml) prepared in TEA buffer; from tissue; host or cells: uterine cytosol of immature estradiol-primed 20-21 day old rats
T1 sequence (P06211 1-600): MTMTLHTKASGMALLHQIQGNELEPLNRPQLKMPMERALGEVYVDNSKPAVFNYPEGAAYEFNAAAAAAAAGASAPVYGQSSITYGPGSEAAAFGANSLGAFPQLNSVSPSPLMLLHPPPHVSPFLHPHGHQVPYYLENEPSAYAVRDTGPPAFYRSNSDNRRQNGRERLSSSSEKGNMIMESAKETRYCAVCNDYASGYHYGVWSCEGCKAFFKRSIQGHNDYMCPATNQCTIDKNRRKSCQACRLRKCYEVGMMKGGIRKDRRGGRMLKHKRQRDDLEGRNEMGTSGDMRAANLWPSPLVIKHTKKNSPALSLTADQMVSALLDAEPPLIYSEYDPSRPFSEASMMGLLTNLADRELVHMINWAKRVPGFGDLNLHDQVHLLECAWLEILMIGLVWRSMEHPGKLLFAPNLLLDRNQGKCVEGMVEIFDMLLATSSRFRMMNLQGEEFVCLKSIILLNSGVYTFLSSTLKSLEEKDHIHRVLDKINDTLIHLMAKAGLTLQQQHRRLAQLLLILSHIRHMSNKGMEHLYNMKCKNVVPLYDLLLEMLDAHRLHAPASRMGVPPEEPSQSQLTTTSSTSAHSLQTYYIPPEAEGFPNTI

MCF-7 cells = assay: cells; format: cell-based, human
Method: The procedure is based on the following methods: New colorimetric assay for anticancer drug screening, Skehan et al., J Natn Cancer Inst, 82,1107, 1990 and Feasibility of a high-flux anticancer drug screen using a diverse panel of cultured human tumor cell lines 83,757, 1991.
A fully confluent flask of MCF-7 cells in trypsinized and 10^4 cells/well are plated in a 96 welled flat bottomed plate in 200 μl Minimum Essential Medium (MEM), pH 7.4 and allowed to attach for 24 h at 37° C. in a humidified CO2 incubator. Subsequently, the compound of invention dissolved in DMSO or ethanol is added at a specified concentration and further incubated for 48 h as before. The cells are then fixed in 50 μl cold 50% TCA and incubated for 1 h at 4° C. The supernatant is discarded and the plate is washed five times with deionized water and air dried. 100 μl of 0.4% (w/v) Sulforhodamine B (SRB) in 1% acetic acid is added to each well and incubated at room temperature for 30 minutes. Unbound SRB is removed by five washes with chilled 1% acetic acid and the plate is air dried. 200 μl of unbuffered 10 mM Tris base is added to solublize the bound stain for 5 minutes at room temperature and O.D. is read at 560 nm in a plate reader. The graph is plotted between O.D. and concentration and LC50 is calculated with respect to tamoxifen, which is used as a positive control.

[4] = 0.05 mg/kg daily with 0.02 mg/kg 17-alfa-ethynylestradiol
[5] = 0.025 mg/kg daily, days 1-5 post-coitum
[6] = 0.05 mg/kg daily, days 1-5 post-coitum
[7] = 0.1 mg/kg daily, days 1-7 post-coitum
[8] = cultured MCF-7 cells, 48 h, read-out: LC50 (the source's name)

COc1ccc2c(c1)OC(C)(C)[C@@H](c1ccccc1)[C@@H]2c1ccc(OC[C@H]2CO2)cc1 (relative stereo) [Example number 1]
T/C ratio [1]: 0.59

CCCCNC[C@@H](O)COc1ccc([C@@H]2c3ccc(OC)cc3OC(C)(C)[C@H]2c2ccccc2)cc1 (relative stereo) [Example number 2, 3R,4R-trans-2,2-dimethyl-3-phenyl-4-(4-[{2R)-(3-n-butylamino-2-hydroxy}propyloxy]-phenyl)-7-methoxychroman]
Endometrium Epithelial cell height ([2]; 0.05 mg/kg daily): 8.69 μm | Endometrium Total area ([2]; 0.05 mg/kg daily): 0.08 mm^2 | Uterus Total area ([2]; 0.05 mg/kg daily): 0.175 mm^2 | Percent increase in uterine weight (percent of OVX + vehicle treatment group) ([2]; 0.05 mg/kg daily): 38% | estrogenic activity at the MED ([2]; at the MED (0.05 mg/kg)): devoid of any estrogenic activity | Percent inhibition in EE induced uterine weight gain [3, 4]: 09% | % Efficacy (adult female rats; [5]): 67% | % Efficacy (adult female rats; [6]): 100% | % Efficacy (adult female rats; [7]): 100% | % Efficacy (adult female rats; 0.5 mg/kg, day 1 post-coitum): 100% | % Efficacy (adult female rats; 1 mg/kg, day 1 post-coitum): 100% | MED (prevention of pregnancy) (adult female rats; rats, administered during the pre-implantation period): 0.05 mg/kg | RBA (estrogen receptors): 5.45

CCCCNC[C@H](O)COc1ccc([C@@H]2c3ccc(OC)cc3OC(C)(C)[C@H]2c2ccccc2)cc1 (relative stereo) [Example number 7]
T/C ratio [1]: 0.41 | Endometrium Epithelial cell height ([2]; 0.05 mg/kg daily): 6.17 μm | Endometrium Total area ([2]; 0.05 mg/kg daily): 0.13 mm^2 | Uterus Total area ([2]; 0.05 mg/kg daily): 0.35 mm^2 | Percent increase in uterine weight (percent of OVX + vehicle treatment group) ([2]; 0.05 mg/kg daily): 11% | Percent inhibition in EE induced uterine weight gain [3, 4]: 31% | % Efficacy (adult female rats; [5]): Inactive | % Efficacy (adult female rats; [6]): 100% | % Efficacy (adult female rats; 0.1 mg/kg daily, days 1-5 post-coitum): 100% | % Efficacy (adult female rats; 0.5 mg/kg, day 1 post-coitum): 50% | % Efficacy (adult female rats; 1 mg/kg, day 1 post-coitum): 100%

COc1ccc2c(c1)OC(C)(C)[C@@H](c1ccccc1)[C@@H]2c1ccc(OCC2CO2)cc1 (relative stereo) [Example number 10, 3R,4R-Trans-2,2-dimethyl-3-phenyl-4-(4-(2,3-epoxypropyloxy)-phenyl)-7-methoxychroman]
T/C ratio [1]: 0.79

COc1ccc2c(c1)OC(C)(C)[C@@H](c1ccccc1)[C@@H]2c1ccc(OCC(O)CN2CCCC2)cc1 (relative stereo) [Example number 12, 3R,4R-Trans-2,2-dimethyl-3-phenyl-4-(4-(2-hydroxy-3-pyrrolidinopropyloxy)-phenyl)-7-methoxy chroman]
CC50 (MCF-7 cells; [8]): 18.2 µM | T/C ratio [1]: 0.77 | Endometrium Epithelial cell height ([2]; 0.1 mg/kg daily): 15.93 μm | Endometrium Total area ([2]; 0.1 mg/kg daily): 0.27 mm^2 | Uterus Total area ([2]; 0.1 mg/kg daily): 0.56 mm^2 | Percent increase in uterine weight (percent of OVX + vehicle treatment group) ([2]; 0.10 mg/kg daily): 120% | Percent inhibition in EE induced uterine weight gain ([3]; 0.1 mg/kg daily with 0.02 mg/kg 17-alfa-ethynylestradiol): 38% | % Efficacy (adult female rats; [6]): 50% | % Efficacy (adult female rats; [7]): 100%

COc1ccc2c(c1)OC(C)(C)[C@@H](c1ccccc1)[C@@H]2c1ccc(OCC(O)CN2CCCCC2)cc1 (relative stereo) [Example number 13, 3R,4R-Trans-2,2-dimethyl-3-phenyl-4-(4-(2-hydroxy-3-piperidinopropyloxy)-phenyl)-7-methoxychroman]
CC50 (MCF-7 cells; [8]): 17.8 µM

C#C[C@]1(O)CC[C@H]2[C@@H]3CCc4cc(O)ccc4[C@H]3CC[C@@]21C [17-alfa-Ethynylestradiol, reference compound]
Endometrium Epithelial cell height ([2]; 0.01 mg/kg daily): 33.65 μm | Endometrium Total area ([2]; 0.01 mg/kg daily): 0.57 mm^2 | Uterus Total area ([2]; 0.01 mg/kg daily): 1.21 mm^2 | Percent increase in uterine weight (percent of OVX + vehicle treatment group) ([2]; 0.01 mg/kg daily): 419%

O=C(c1ccc(OCCN2CCCCC2)cc1)c1c(-c2ccc(O)cc2)sc2cc(O)ccc12 [Raloxifene, reference compound]
T/C ([1]; comparator, concentration not given): 0.6

CC/C(=C(\c1ccccc1)c1ccc(OCCN(C)C)cc1)c1ccccc1 [Tamoxifen, reference compound]
CC50 (MCF-7 cells; Homo sapiens, MCF7, 48 h, read-out: LC50): 14.2 µM
